Structures are written as SMILES. In brackets after ≈: the same amount, converted by molar mass. Some results are limits rather than exact numbers.

The subject of one assay is C. albicans ATCC 24433. In words: Spectrophotometric sterol analysis (effect on sterol composition). The following applies: 0, 0.125, 0.25, 0.50, 1 and 2 μg/ml of compound, 16 h, 28° C.; heptane sterol extract scanned 220-300 nm (FIG. 1). The format is cell-based, Candida albicans. On the procedure: FIG. 1: Spectrophotometric sterol analysis of Candida albicans ATCC 24433 exposed with different concentrations of compounds of the present invention and reference compounds.
Overnight grown culture of C. albicans ATCC 24433 was inoculated (10^6 cells/ml) in 50 ml 1% YPG broth containing 0, 0.125, 0.25, 0.50, 1, and 2 μg/ml of compounds. The flasks were incubated for 16 h with shaking at 28° C. The stationary-phase cells were harvested by centrifugation at 8000 rpm for 10 min and washed once with sterile distilled water. The net wet weight of the cell pellet was determined. To the 100 mg cell pellet, 3 ml of 25% alcoholic potassium hydroxide solution (25 g of KOH and 35 ml of sterile distilled water, brought to 100 ml with 100% ethanol), was added to each pellet and vortex mixed for 1 min. Cell suspensions were transferred to sterile borosilicate glass screw-cap tubes and were incubated in an 85° C. water bath for 1 h. Following incubation, tubes were allowed to cool to room temperature. Sterols were then extracted by addition of a mixture of 1 ml of sterile distilled water and 3 ml of n-heptane followed by vigorous vortex mixing for 3 min. The heptane layer was transferred to a clean borosilicate glass screw-cap tube and stored at −20° C. for as long as 24 h. Prior to analysis, a 20 μl aliquot of sterol extract was diluted fivefold in 100% ethanol and scanned spectrophotometrically between 220 and 300 nm on Spectrophotometer.

Assay [1] deals with Fusarium oxysporum CMI 113138. In words: Broth microdilution antifungal susceptibility (MIC), plant pathogenic fungi. The format is cell-based. As to conditions: CMI113138, MIC = concentration exhibiting >90% inhibition of growth vs control, RPMI 1640, 48-72 h, read-out: Minimum Inhibitory Concentration, Fusarium oxysporum CMI 113138. As to the method: (§1) In vitro antifungal assays were performed by broth microdilution method according to the Clinical and Laboratory Standards Institute (CLSI, formerly NCCL) methods M27-A3 and M-38-A2. The activity was checked against plant pathogenic fungi Fusarium oxysporum CMI 113138, Aspergillus flavus ATCC 11499, Claviceps purpurea CMI 44613, Alternaria solani ATCC 11785, Ustilago maydis PRL 1549 and yeast Dekkera bruxellensis ATCC 36234. Briefly each compound stock was prepared in DMSO at concentration of 12800 μg/ml. For assay compound stocks were serially diluted two fold in microtiter plate and 4 μl of this was used for assay to get a final concentration in the range of 256-2 μg/ml. Spores of the filamentous fungi (˜2×10^4 spores/ml) and yeast cells freshly grown in YPG broth in logarithmic phase (˜2×10^3 cfu/ml) were suspended in the RPMI 1640 medium and 196 μl from these were inoculated in the wells of the plate. The microtitre plate was incubated for 48-72 h. Growth was checked by visual observation and measuring absorbance at 600 nm using microtitre plate reader.
In general terms: In broth dilution the organism is exposed to a series of concentrations in liquid medium.

Assay [2] relates to Aspergillus flavus ATCC 11499. The description is as above. The following applies: ATCC11499, MIC = concentration exhibiting >90% inhibition of growth vs control, RPMI 1640, 48-72 h, read-out: Minimum Inhibitory Concentration, Aspergillus flavus ATCC 11499. It counts as cell-based. As to the method:
as §1

Assay [3] has as its system Alternaria solani ATCC 11785. Described as above. It counts as cell-based. The following applies: ATCC11785, MIC = concentration exhibiting >90% inhibition of growth vs control, RPMI 1640, 48-72 h, read-out: Minimum Inhibitory Concentration, Alternaria solani ATCC 11785. As to the method: as §1
Assay [4] deals with Claviceps purpurea CMI 44613. The description is as above. It counts as cell-based. As to conditions: CMI44613, MIC = concentration exhibiting >90% inhibition of growth vs control, RPMI 1640, 48-72 h, read-out: Minimum Inhibitory Concentration, Claviceps purpurea CMI 44613. As to the method: as §1
For the next assay, the system named is Ustilago maydis PRL 1549. The assay is described as above. It counts as cell-based. The following applies: Mycosarcoma maydis, PRL1549; MIC = concentration exhibiting >90% inhibition of growth vs control; RPMI 1640, 48-72 h; read-out: Minimum Inhibitory Concentration, Ustilago maydis PRL 1549. On the procedure:
as §1

Assay [5] concerns tested plant and human pathogens. In words: Overall antifungal activity, summary of susceptibility testing. The format is cell-based. The following applies: summary statement on Tables 1 and 2. On the procedure: as §1
(§2) Antifungal activity of the compounds was also checked against human pathogens Candida albicans ATCC 24433, C. albicans ATCC 10231, Candida glabrata NCYC 388, Candida tropicalis ATCC 750, Cryptococcus neoformans ATCC 34554, Aspergillus niger ATCC 10578, by following procedure described below.

Assay [6] deals with Aspergillus niger ATCC 10578. The experiment in a line: Antifungal susceptibility (MIC), human fungal pathogens. It counts as cell-based. As to conditions: ATCC10578, MIC = concentration exhibiting >90% inhibition of growth vs control, read-out: Minimum Inhibitory Concentration, A. niger ATCC 10578. As to the method: as §1, §2
The test system of assay [7] is Candida albicans ATCC 24433. The assay is described as above. The format is cell-based. The following applies: ATCC24433, MIC = concentration exhibiting >90% inhibition of growth vs control, read-out: Minimum Inhibitory Concentration, C.albicans ATCC 24433. As to the method: as §1, §2
The subject of a further assay is C. albicans ATCC 10231. The assay is described as above. It counts as cell-based. The following applies: Candida albicans, ATCC10231; MIC = concentration exhibiting >90% inhibition of growth vs control; read-out: Minimum Inhibitory Concentration, C.albicans ATCC 10231. On the procedure: as §1, §2
For assay [8], the system named is Cryptococcus neoformans ATCC 34554. The description is as above. As to conditions: ATCC34554, MIC = concentration exhibiting >90% inhibition of growth vs control, read-out: Minimum Inhibitory Concentration, C.neoformans ATCC 34554. The format is cell-based. On the procedure:
as §1, §2

Assay [9] relates to Candida tropicalis ATCC 750. The description is as above. It counts as cell-based. As to conditions: ATCC750, MIC = concentration exhibiting >90% inhibition of growth vs control, read-out: Minimum Inhibitory Concentration, C.tropicalis ATCC 750. On the procedure:
as §1, §2

Assay [10] relates to Candida glabrata NCYC 388. The assay is described as above. It counts as cell-based. The following applies: Nakaseomyces glabratus, NCYC388; MIC = concentration exhibiting >90% inhibition of growth vs control; read-out: Minimum Inhibitory Concentration, C.glabrata NCYC 388. On the procedure:
as §1, §2

For assay [11], the system named is Dekkera bruxellensis ATCC 36234. The experiment in a line: Broth microdilution antifungal susceptibility (MIC), yeast. It counts as cell-based. The following applies: Brettanomyces bruxellensis, ATCC36234; MIC = concentration exhibiting >90% inhibition of growth vs control; RPMI 1640, 48-72 h; read-out: Minimum Inhibitory Concentration, Dekkera bruxellensis ATCC 36234. On the procedure: as §1

In the case of `CC(Cc1ccc(C(C)(C)C)cc1)CN1CCCCC1` (centres unmarked) [Fenpropidin, reference compound], the “Height of sterol absorbance peaks (ergosterol concentration)” value (shortened to “Height of sterol absorbance peaks”) with C. albicans ATCC 24433 is reported as “dose-dependent decrease in the height of the absorbance peaks”. Besides, the MIC in [1] was found to be 256 µg/mL (≈ 936 µM); in assay [2], 256 µg/mL (≈ 936 µM); in assay [3], 128 µg/mL (≈ 468 µM); in assay [4], 32 µg/mL (≈ 117 µM); in the assay with Ustilago maydis PRL 1549, 128 µg/mL (≈ 468 µM); in assay [6] it was 0.5 µg/mL (≈ 1.83 µM). Further, the MIC is 0.5 µg/mL (≈ 1.83 µM) in assay [7]; 1 µg/mL (≈ 3.66 µM) with C. albicans ATCC 10231; 0.5 µg/mL (≈ 1.83 µM) in [8]; 8 µg/mL (≈ 29.3 µM) in [9]; 0.25 µg/mL (≈ 0.914 µM) in assay [10]; 128 µg/mL (≈ 468 µM) in [11]. Moreover, the “Antifungal activity against the tested plant and human pathogens (in words)” value (“Antifungal activity” for short) in [5] is listed as “potent antifungal activity”.

`CC(Cc1ccc(C(C)(C)C)cc1)CN1C[C@@H](C)O[C@@H](C)C1` (some centres unmarked) [Fenpropimorph, reference compound]: the “Height of sterol absorbance peaks” value with C. albicans ATCC 24433 was “dose-dependent decrease in the height of the absorbance peaks”. The MIC in [1] is above 256 µg/mL; in assay [2] it was above 256 µg/mL; in assay [3], above 256 µg/mL; in assay [4], 32 µg/mL (≈ 105 µM); in the assay with Ustilago maydis PRL 1549, above 256 µg/mL; in assay [6], 1 µg/mL (≈ 3.3 µM). Moreover, the MIC in assay [7] amounted to 0.125 µg/mL (≈ 0.412 µM); with C. albicans ATCC 10231, 0.25 µg/mL (≈ 0.824 µM); in assay [8], 0.125 µg/mL (≈ 0.412 µM); in assay [9] it was 4 µg/mL (≈ 13.2 µM); in [10], 0.125 µg/mL (≈ 0.412 µM). Besides, the “Antifungal activity” value in assay [5] is “potent antifungal activity”.

Consider `CC(Cc1ccc(C(C)(C)C)cc1)CN1CC[Si](C)(C)CC1` (racemic) [NDS100414, (R,S)1-(3-(4-(tert-butyl)phenyl)-2-methylpropyl)-4,4-dimethyl-1,4-azasilinane], for which, in the assay on C. albicans ATCC 24433, the “Height of sterol absorbance peaks” value is “dose-dependent decrease in the height of the absorbance peaks”. Further, the MIC in [1] turned out to be 64 µg/mL (≈ 202 µM); in [2] it was 128 µg/mL (≈ 403 µM); in assay [3], 32 µg/mL (≈ 101 µM); in assay [4], 4 µg/mL (≈ 12.6 µM); with Ustilago maydis PRL 1549, 32 µg/mL (≈ 101 µM); in assay [6] it was 0.5 µg/mL (≈ 1.57 µM). Also, the MIC stood at 4 µg/mL (≈ 12.6 µM) in [7]; 0.5 µg/mL (≈ 1.57 µM) in the assay on C. albicans ATCC 10231; 2 µg/mL (≈ 6.3 µM) in assay [8]; 64 µg/mL (≈ 202 µM) in assay [9]; 4 µg/mL (≈ 12.6 µM) in assay [10]; 16 µg/mL (≈ 50.4 µM) in [11]. Moreover, in assay [5], the “Antifungal activity” value is listed as “potent antifungal activity”.

`CC(Cc1ccc(C(C)(C)C)cc1)C(=O)NC[Si](C)(C)c1ccccc1` (centres unmarked) [NDS100582]: the MIC (in assay [1]; in [2]; in assay [3]; in assay [4]; in the assay with Ustilago maydis PRL 1549; in assay [6]) was above 256 µg/mL throughout. Besides, the MIC (in assay [7]; in the assay with C. albicans ATCC 10231; in assay [8]; in assay [9]; in [10]) was above 256 µg/mL each time.

For the compound `CC(Cc1ccc([Si](C)(C)C)cc1)CN1CC[Si](C)(C)CC1` (centres unmarked) [NDS100579, 4,4-dimethyl-1-(2-methyl-3-(4-(trimethylsilyl)phenyl)propyl)-1,4-azasilinane], the MIC in assay [1] is above 256 µg/mL; in [2], above 256 µg/mL; in assay [3], above 256 µg/mL; in assay [4] it was 64 µg/mL (≈ 192 µM); in the assay on Ustilago maydis PRL 1549, above 256 µg/mL; in assay [6], 0.5 µg/mL (≈ 1.5 µM). Further, the MIC in assay [7] worked out at 2 µg/mL (≈ 5.99 µM); in the assay on C. albicans ATCC 10231 it was 1 µg/mL (≈ 3 µM); in [8] it was 2 µg/mL (≈ 5.99 µM); in assay [9] it was 64 µg/mL (≈ 192 µM); in assay [10] it was 2 µg/mL (≈ 5.99 µM).

For `CCC(C)(C)c1ccc(CC(C)CN2CC[Si](C)(C)CC2)cc1` (centres unmarked) [NDS100444], in the assay on C. albicans ATCC 24433, the “Height of sterol absorbance peaks” value is “dose-dependent decrease in the height of the absorbance peaks”. Further, the MIC in [1] is 64 µg/mL (≈ 193 µM); in [2] it was 64 µg/mL (≈ 193 µM); in [3] it was 32 µg/mL (≈ 96.5 µM); in assay [4] it was 16 µg/mL (≈ 48.2 µM); in the assay with Ustilago maydis PRL 1549, below 2 µg/mL; in assay [6], 0.5 µg/mL (≈ 1.51 µM). For the same compound, the MIC in assay [7] stood at 4 µg/mL (≈ 12.1 µM); with C. albicans ATCC 10231, 0.5 µg/mL (≈ 1.51 µM); in assay [8] it was 2 µg/mL (≈ 6.03 µM); in assay [9], 64 µg/mL (≈ 193 µM); in assay [10], 8 µg/mL (≈ 24.1 µM); in assay [11], 4 µg/mL (≈ 12.1 µM). In [5], the “Antifungal activity” value is “potent antifungal activity”.

Take `CC(Cc1ccc(C(C)(C)C)cc1)C(=O)N1CC[Si](C)(C)CC1` (centres unmarked) [NDS100415]: the MIC (in [1]; in assay [2]; in [3]; in assay [4]; in the assay on Ustilago maydis PRL 1549; in assay [6]) was above 256 µg/mL throughout. The MIC (in [7]; with C. albicans ATCC 10231; in assay [8]; in assay [9]; in assay [10]; in assay [11]) was above 256 µg/mL throughout.

Source of the values: US10053472B2, “Silicon-based fungicides and process for producing the same” (COUNCIL OF SCIENTIFIC & INDUSTRIAL RESEARCH, priority 2014, dated 2018).
